According to PMC8373216, “Development and Preclinical Evaluation of New Inhaled Lipoglycopeptides for the Treatment of Persistent Pulmonary Methicillin-Resistant Staphylococcus aureus Infections” (Antimicrobial Agents and Chemotherapy, 2021):
≈ marks a conversion by molar mass, not a printed value. Where two headings read alike, the source gives them in different places.

Legend:
[1] = system: Clostridium. perfringens; assay: microbe, parasite or virus in culture; format: cell-based
[2] = system: Enterococcus faecalis; assay: Expanded panel broth microdilution MIC/MBC; format: cell-based
[3] = system: Staphylococcus hominis; assay: Expanded panel broth microdilution MIC; format: cell-based
[4] = system: MRSA ATCC BAA 1556 (USA300); assay: In-house broth microdilution MIC screening; format: cell-based, Staphylococcus aureus; settings: Staphylococcus aureus, read-out: MIC Value, MRSA ATCC BAA 1556
[5] = system: Streptococcus dysgalactiae; assay: Expanded panel broth microdilution MIC/MBC; format: cell-based; settings: for MIC: Streptococcus dysgalactiae
[6] = system: Streptococcus agalactiae; assay: Expanded panel broth microdilution MIC/MBC; format: cell-based
[7] = system: Streptococcus oralis; assay: Expanded panel broth microdilution MIC; format: cell-based
[8] = system: Streptococcus pneumoniae; assay: Expanded panel broth microdilution MIC/MBC; format: cell-based
[9] = system: Streptococcus constellatus; assay: Expanded panel broth microdilution MIC; format: cell-based
[10] = system: MSSA ATCC 29213; assay: In-house broth microdilution MIC screening; format: cell-based; settings: Staphylococcus aureus, read-out: MIC Value, MSSA ATCC 29213
[11] = Single-dose nebulized nose-only inhalation PK in healthy rats; format: in vivo, rat
Description: Rats were acclimated in the study facility for approximately 1 week prior to study start. Ten or eleven rats per cohort were loaded into the chamber at the time of dosing. […] An additional airflow set to 6 liters/min was admixed with the nebulizer output to further direct the test articles to the animals. […] The remaining port on the chamber was fit with an aerosol sampling filter for dose determination over a 5 min sampling period. The average dose delivered to the nose of each animal was calculated using an algorithm that was previously described ([49]). […] Animals were euthanized for collection of whole lungs and plasma at time points ranging from immediate postdose (IPD; approximately 30 min after dosing for nebulization) to 168 h postdose (7 days). Drugs were extracted from tissues using customized protein precipitation methods with an appropriate internal standard for each compound and transferred for analysis by LC-MS/MS (Sciex API4500 or API6500+ mass spectrometer [Sciex, Framingham, MA]). GraphPad Prism (La Jolla, CA) was used for statistical analyses and data plotting. […] The data were applied to a noncompartmental analysis after extravascular dosing input and fit to a linear up/log down model. Statistical analysis of in vitro intracellular and biofilm activity was based on a two-way ANOVA with a Bonferroni post test. In vivo statistical analysis was based on the Kolmogorov-Smirnov test.

[12] = system: Streptococcus mitis; assay: Expanded panel broth microdilution MIC/MBC; format: cell-based; settings: for MIC: Streptococcus mitis
[13] = system: Streptococcus pyogenes; assay: Expanded panel broth microdilution MIC/MBC; format: cell-based
[14] = system: S. aureus; assay: Expanded panel broth microdilution MIC/MBC; settings: for MIC: Staphylococcus aureus
[15] = system: Cutibacterium acnes; assay: Expanded panel broth microdilution MIC; format: cell-based
[16] = system: Streptococcus anginosus; assay: Expanded panel broth microdilution MIC/MBC; format: cell-based; settings: for MIC: Streptococcus anginosus
[17] = system: MRSA ATCC BAA 1556 (USA300) biofilm; assay: Static MRSA biofilm killing, plastic microtiter plate, MEM
[18] = single nebulized nose-only inhaled dose, healthy rats

CCCCCCCCCCNCCN[C@@]1(C)C[C@H](O[C@H]2[C@H](Oc3c4cc5cc3Oc3ccc(cc3Cl)[C@@H](O)[C@@H](NC(=O)[C@@H](CC(C)C)NC)C(=O)N[C@@H](CC(N)=O)C(=O)N[C@H]5C(=O)N[C@H]3C(=O)N[C@H](C(=O)N[C@H](C(=O)O)c5cc(O)c(CNCP(=O)(O)O)c(O)c5-c5cc3ccc5O)[C@H](O)c3ccc(c(Cl)c3)O4)O[C@H](CO)[C@@H](O)[C@@H]2O)O[C@@H](C)[C@H]1O [Telavancin, telavancin]
MIC [1]: 0.015 µg/mL (≈ 0.00854 µM) | MIC ([1]; ATCC13124, read-out: MIC): 0.015 µg/mL (≈ 0.00854 µM) | MIC:MBC ([2]; E. faecalis VSE, MBC on one organism): >8 | MIC:MBC ([2]; E. faecalis VanA VRE): 8 | MIC ([2]; E. faecalis VanA VRE, 1 isolate): 1 µg/mL (≈ 0.57 µM) | MIC ([2]; Enterococcus faecalis): 0.25 µg/mL (≈ 0.142 µM) | MIC ([2]; Enterococcus faecalis, ATCC29212): 0.12 µg/mL (≈ 0.0684 µM) | MIC ([2]; Enterococcus faecalis, VRE): 1 µg/mL (≈ 0.57 µM) | MIC ([2]; Enterococcus faecalis, read-out: MIC (median)): 0.19 µg/mL (≈ 0.108 µM) | MIC [3]: 0.06 µg/mL (≈ 0.0342 µM) | MIC ([3]; ATCC27844): 0.06 µg/mL (≈ 0.0342 µM) | MIC [4]: 0.063 µg/mL (≈ 0.0359 µM) | MIC:MBC ([5]; S. dysgalactiae, MBC on one organism): 4 | MIC ([5]; S. dysgalactiae MMX 5121): 0.12 µg/mL (≈ 0.0684 µM) | MIC ([5]; S. dysgalactiae MMX 5123): 0.25 µg/mL (≈ 0.142 µM) | MIC ([5]; S. dysgalactiae MMX 5124): 0.03 µg/mL (≈ 0.0171 µM) | MIC ([5]; read-out: MIC (median), S. dysgalactiae, 3 isolates): 0.12 µg/mL (≈ 0.0684 µM) | MIC ([6]; S. agalactiae MMX 4115, ermR): 0.06 µg/mL (≈ 0.0342 µM) | MIC ([6]; S. agalactiae ermR, 1 isolate): 0.06 µg/mL (≈ 0.0342 µM) | MIC:MBC ([6]; S. agalactiae, MBC on one organism): >8 | MIC ([6]; Streptococcus agalactiae): 0.06 µg/mL (≈ 0.0342 µM) | MIC ([6]; Streptococcus agalactiae, ATCC13813): 0.06 µg/mL (≈ 0.0342 µM) | MIC ([6]; Streptococcus agalactiae, read-out: MIC (median)): 0.06 µg/mL (≈ 0.0342 µM) | MIC ([7]; S. oralis MGS, 1 isolate): 0.06 µg/mL (≈ 0.0342 µM) | MIC ([7]; Streptococcus oralis): 0.06 µg/mL (≈ 0.0342 µM) | MIC:MBC ([8]; S. pneumoniae PISP, MBC on one organism): 1 | MIC ([8]; S. pneumoniae PRSP, 1 isolate): 0.03 µg/mL (≈ 0.0171 µM) | MIC ([8]; Streptococcus pneumoniae): 0.015 µg/mL (≈ 0.00854 µM) | MIC ([8]; Streptococcus pneumoniae, ATCC49619): 0.03 µg/mL (≈ 0.0171 µM) | MIC ([8]; Streptococcus pneumoniae, PRSP): 0.03 µg/mL (≈ 0.0171 µM) | MIC ([8]; Streptococcus pneumoniae, read-out: MIC (median)): 0.02 µg/mL (≈ 0.0114 µM) | MIC ([9]; S. constellatus AGS, 1 isolate): 0.03 µg/mL (≈ 0.0171 µM) | MIC ([9]; Streptococcus constellatus): 0.03 µg/mL (≈ 0.0171 µM) | MIC [10]: 0.063 µg/mL (≈ 0.0359 µM) | half-life ([11]; male, Sprague Dawley, rat, in vivo, inhaled or intranasal, single nebulized nose-only inhaled dose, healthy rats, noncompartmental analysis, read-out: Lung t1/2 (converted)): 21.1 days | Drug lung level at 120 h ([11]; relative to IPD level, rat lung): 81% | Lung AUC0-∞ [11, 18]: 3877 µg·h/g | Lung Cmax [11, 18]: 12 µg/g | Plasma Cmax [11, 18]: BLQ | MIC:MBC ([12]; S. mitis MGS, MBC on one organism): 1 | MIC [12]: 0.03 µg/mL (≈ 0.0171 µM) | MIC ([12]; ATCC49456): 0.06 µg/mL (≈ 0.0342 µM) | MIC ([12]; read-out: MIC (median)): 0.05 µg/mL (≈ 0.0285 µM) | MIC ([13]; S. pyogenes MMX 946, ermR): 0.06 µg/mL (≈ 0.0342 µM) | MIC:MBC ([13]; S. pyogenes ermR): 1 | MIC ([13]; S. pyogenes ermR, 1 isolate): 0.06 µg/mL (≈ 0.0342 µM) | MIC ([13]; Streptococcus pyogenes): 0.06 µg/mL (≈ 0.0342 µM) | MIC ([13]; Streptococcus pyogenes, ATCC19615): 0.06 µg/mL (≈ 0.0342 µM) | MIC ([13]; Streptococcus pyogenes, read-out: MIC (median)): 0.06 µg/mL (≈ 0.0342 µM) | MIC:MBC ([14]; S. aureus MRSA, MBC median of n = 5): 1 | MIC:MBC ([14]; S. aureus MSSA, MBC on one organism): 1 | MIC:MBC ([14]; S. aureus VISA, MBC median of n = 2): 1 | MIC:MBC ([14]; S. aureus hVISA, MBC on one organism): 1 | MIC ([14]; ATCC13709 / MSSA, S. aureus ATCC 13709, MSSA): 0.12 µg/mL (≈ 0.0684 µM) | MIC ([14]; ATCC29213 / MSSA, S. aureus ATCC 29213, MSSA): 0.06 µg/mL (≈ 0.0342 µM) | MIC ([14]; ATCC43300 / MRSA, S. aureus ATCC 43300, MRSA): 0.06 µg/mL (≈ 0.0342 µM) | MIC ([14]; ATCCBAA1556|MRSA|USA300, S. aureus ATCC BAA-1556, MRSA, USA300 (expanded panel)): 0.06 µg/mL (≈ 0.0342 µM) | MIC ([14]; ATCCBAA1756|MRSA|NRS384|USA300, S. aureus NRS 384, ATCC BAA-1756, MRSA, USA300): 0.06 µg/mL (≈ 0.0342 µM) | MIC ([14]; MRSA / NRS123 / USA400, S. aureus NRS123, MRSA, USA400): 0.06 µg/mL (≈ 0.0342 µM) | MIC ([14]; MRSA / NRS725 / USA300, S. aureus NRS725, MRSA, USA300): 0.06 µg/mL (≈ 0.0342 µM) | MIC ([14]; MRSA / USA300, S. aureus MMX 3982, MRSA, USA300): 0.06 µg/mL (≈ 0.0342 µM) | MIC ([14]; MRSA, S. aureus MMX 5715, MRSA): 0.06 µg/mL (≈ 0.0342 µM) | MIC ([14]; MRSA, S. aureus MMX 7899, MRSA): 0.06 µg/mL (≈ 0.0342 µM) | MIC ([14]; MRSA, S. aureus MMX 7900, MRSA): 0.06 µg/mL (≈ 0.0342 µM) | MIC ([14]; MRSA, S. aureus MMX 7901, MRSA): 0.03 µg/mL (≈ 0.0171 µM) | MIC ([14]; MRSA, S. aureus MMX 7902, MRSA): 0.06 µg/mL (≈ 0.0342 µM) | MIC ([14]; MRSA, S. aureus MMX 7903, MRSA): 0.06 µg/mL (≈ 0.0342 µM) | MIC ([14]; MRSA, read-out: MIC (median), S. aureus MRSA, 12 isolates): 0.06 µg/mL (≈ 0.0342 µM) | MIC ([14]; MSSA, S. aureus MMX 7907, MSSA): 0.06 µg/mL (≈ 0.0342 µM) | MIC ([14]; MSSA, S. aureus MMX 7908, MSSA): 0.12 µg/mL (≈ 0.0684 µM) | MIC ([14]; MSSA, read-out: MIC (median), S. aureus MSSA, 4 isolates): 0.09 µg/mL (≈ 0.0513 µM) | MIC ([14]; NRS1 / VISA, S. aureus NRS1, VISA, Mu50): 0.5 µg/mL (≈ 0.285 µM) | MIC ([14]; NRS2, S. aureus NRS2, hVISA;Mu3): 0.12 µg/mL (≈ 0.0684 µM) | MIC ([14]; NRS4 / VISA, S. aureus NRS4, VISA): 0.25 µg/mL (≈ 0.142 µM) | MIC ([14]; NRS13 / VISA, S. aureus NRS13, VISA): 0.12 µg/mL (≈ 0.0684 µM) | MIC ([14]; NRS22 / VISA, S. aureus NRS22, VISA): 0.5 µg/mL (≈ 0.285 µM) | MIC ([14]; NRS23, S. aureus NRS23, hVISA): 0.25 µg/mL (≈ 0.142 µM) | MIC ([14]; NRS52 / VISA, S. aureus NRS52, VISA): 0.25 µg/mL (≈ 0.142 µM) | MIC ([14]; VISA, read-out: MIC (median), S. aureus VISA, 5 isolates): 0.25 µg/mL (≈ 0.142 µM) | MIC ([14]; read-out: MIC (median), S. aureus hVISA, 2 isolates): 0.19 µg/mL (≈ 0.108 µM) | MIC ([15]; ATCC6919): 0.03 µg/mL (≈ 0.0171 µM) | MIC ([15]; ATCC11827): 0.015 µg/mL (≈ 0.00854 µM) | MIC ([15]; read-out: MIC (median)): 0.02 µg/mL (≈ 0.0114 µM) | MIC:MBC ([16]; S. anginosus AGS): >8 | MIC [16]: 0.06 µg/mL (≈ 0.0342 µM) | MIC ([16]; ATCC33397): 0.06 µg/mL (≈ 0.0342 µM) | Reduction in MRSA biofilm titer versus control ([17]; doses 1 to 10 μg/ml): approximately 2 log10 CFU/ml | Concentrations with statistically significant reduction versus control biofilm ([17]; two-way ANOVA, Bonferroni): ≥ 10 µg/mL
